The record followed here is patent US20180133343A1, “NANOPARTICLE CONJUGATES AND USES THEREOF” (Massachusetts Institute of Technology, priority 2016, published 2018).

The experiment deals with CD8+ T cells. The experiment is described as follows: Drug concentration in CD8+ T cells after in vitro incubation. In kind it is cell-based. The conditions noted are these: free drug at 10-fold higher dose, compared to drug-loaded nanoparticles.

With `Cc1cccc(-c2[nH]c(C(C)(C)C)nc2-c2ccc3nccnc3c2)n1` [SB525334], the drug/cell ratio entry is reported as “lower drug/cell ratio”.
